“Also recorded” adds a separate entry of the source. Like-named read-outs stand apart in the source and are kept apart here.
Legend:
Job plot [1] = format: physicochemical; settings: calabadion 2•etomidate; establishes 1:1 complex
S.typhimurium TA 98 = experiment: Bacteria reverse mutation assay; settings: for ratio of number of colonies after treatment relative to untreated bacteria: <1.6 not mutagenic
S.typhimurium TA 1535 = settings: for ratio of number of colonies after treatment relative to untreated bacteria: <1.6 not mutagenic
[2] = system: THP-1, HepG2 and HEK293 cells; experiment: Adenylate kinase release cell necrosis; format: cell-based, human; settings: calabadion 2 up to 1 mM
Swiss Webster mice = experiment: Dose escalation; format: in vivo, mouse
[3] = system: S.typhimurium TA1535, TA 1537, TA 98 and TA 100; experiment: Bacteria reverse mutation assay; settings: Ames test, −/+S9
S.typhimurium TA 100 = settings: for ratio of number of colonies after treatment relative to untreated bacteria: <1.6 not mutagenic
Sprague-Dawley rats [4] = experiment: Burst suppression ratio and blood pressure during continuous etomidate infusion; format: in vivo, rat; settings: continuous etomidate i.v.; escalating calabadion 2 infusion; returned from 83%; n=10
Job plot [5] = format: physicochemical; settings: calabadion 2•ketamine, total 1 mM, pD 7.4; establishes 1:1 complex
Sprague-Dawley rats [6] = experiment: Time to recovery from loss of righting reflex; format: in vivo, rat
S.typhimurium TA 1537 = experiment: Bacteria reverse mutation assay; settings: for ratio of number of colonies after treatment relative to untreated bacteria: <1.6 not mutagenic
Sprague-Dawley rats [7] = experiment: Total EEG power and blood pressure during continuous ketamine infusion; format: in vivo, rat; settings: highest calabadion 2 dose, baseline 96 mmHg, n=10
rats = experiment: Balance beam test of functional mobility after anesthesia; format: in vivo, rat; settings: n=7
kidney cells (HEK293) = experiment: MTS cell viability assay; format: cell-based, human; settings: calabadion 2 up to 1 mM
[8] = system: human white blood cells (THP-1); experiment: MTS cell viability assay; format: cell-based; settings: calabadion 2 up to 1 mM
Sprague-Dawley rats [9] = experiment: Maximal tolerated dose escalation study with histopathology in rats; format: in vivo, rat
hERG channel = hERG channel (Homo sapiens, UniProt Q12809); settings: read-out: IC50, hERG channel; CHO-hERG, patch clamp, up to 25 μM
liver cells (HepG2) = experiment: MTS cell viability assay; format: cell-based, human; settings: calabadion 2 up to 1 mM

Sequence of hERG channel (Q12809 whole entry): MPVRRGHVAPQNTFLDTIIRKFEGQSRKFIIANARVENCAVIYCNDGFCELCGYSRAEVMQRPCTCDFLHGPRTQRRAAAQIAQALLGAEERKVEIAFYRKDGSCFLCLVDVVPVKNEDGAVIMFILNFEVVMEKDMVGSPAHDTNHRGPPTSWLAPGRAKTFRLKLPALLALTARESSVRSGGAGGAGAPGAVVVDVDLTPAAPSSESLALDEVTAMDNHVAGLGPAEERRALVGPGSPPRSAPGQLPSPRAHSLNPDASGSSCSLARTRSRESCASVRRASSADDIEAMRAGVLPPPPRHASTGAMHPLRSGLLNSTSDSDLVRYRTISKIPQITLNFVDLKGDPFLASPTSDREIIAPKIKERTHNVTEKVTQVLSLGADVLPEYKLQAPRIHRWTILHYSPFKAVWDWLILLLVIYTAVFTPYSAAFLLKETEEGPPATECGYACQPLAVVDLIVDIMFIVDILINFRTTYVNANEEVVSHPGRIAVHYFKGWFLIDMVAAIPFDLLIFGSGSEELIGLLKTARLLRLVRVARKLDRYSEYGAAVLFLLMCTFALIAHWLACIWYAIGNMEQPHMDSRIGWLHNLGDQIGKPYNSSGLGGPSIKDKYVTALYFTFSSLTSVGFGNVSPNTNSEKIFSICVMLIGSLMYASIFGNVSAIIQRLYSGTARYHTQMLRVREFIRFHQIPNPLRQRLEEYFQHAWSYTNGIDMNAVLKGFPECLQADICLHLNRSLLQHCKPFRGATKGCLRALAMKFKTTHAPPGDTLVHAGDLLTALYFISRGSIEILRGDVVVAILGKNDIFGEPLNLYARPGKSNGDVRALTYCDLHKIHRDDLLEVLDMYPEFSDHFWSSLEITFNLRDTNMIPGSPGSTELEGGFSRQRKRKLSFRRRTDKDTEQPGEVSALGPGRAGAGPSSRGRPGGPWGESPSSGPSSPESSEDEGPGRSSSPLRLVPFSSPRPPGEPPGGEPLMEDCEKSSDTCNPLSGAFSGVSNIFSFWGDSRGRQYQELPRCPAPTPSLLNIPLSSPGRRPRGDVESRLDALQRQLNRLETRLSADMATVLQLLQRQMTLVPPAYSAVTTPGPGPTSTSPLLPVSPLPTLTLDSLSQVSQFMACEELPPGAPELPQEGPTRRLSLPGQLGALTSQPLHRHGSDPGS

SMILES: C[C@]12N3Cc4c(c(OCCCS(=O)(=O)[O-])c5ccccc5c4OCCCS(=O)(=O)[O-])CN1C(=O)N1CN4C(=O)N5CN6C(=O)N7CN8C(=O)N9Cc%10c(c(OCCCS(=O)(=O)[O-])c%11ccccc%11c%10OCCCS(=O)(=O)[O-])CN%10C(=O)N(CN%11C(=O)N(CN%12C(=O)N(CN(C3=O)[C@]12C)[C@@H]4[C@H]%125)[C@@H]6[C@H]%117)[C@]8(C)[C@@]9%10C.[Na+].[Na+].[Na+].[Na+] [Calabadion 2]
- Job plot maximum (mole fraction) (Job plot [1]): 0.5
- number of colonies growing after treatment (S.typhimurium TA 98; TA 98, +S9, 0.012 mg per plate): 24 ± 4
- number of colonies growing after treatment (S.typhimurium TA 98; TA 98, +S9, 0.037 mg per plate): 27 ± 3
- number of colonies growing after treatment (S.typhimurium TA 98; TA 98, +S9, 0.11 mg per plate): 23 ± 5
- number of colonies growing after treatment (S.typhimurium TA 98; TA 98, +S9, 0.33 mg per plate): 24 ± 7
- number of colonies growing after treatment (S.typhimurium TA 98; TA 98, +S9, 1 mg per plate): 29 ± 6
- ratio of number of colonies after treatment relative to untreated bacteria (S.typhimurium TA 98; TA 98, +S9): 1.07
- number of colonies growing after treatment (S.typhimurium TA 98; TA 98, −S9, 0.012 mg per plate): 24 ± 4
- number of colonies growing after treatment (S.typhimurium TA 98; TA 98, −S9, 0.037 mg per plate): 18 ± 8
- number of colonies growing after treatment (S.typhimurium TA 98; TA 98, −S9, 0.11 mg per plate): 30 ± 10
- number of colonies growing after treatment (S.typhimurium TA 98; TA 98, −S9, 0.33 mg per plate): 21 ± 5
- number of colonies growing after treatment (S.typhimurium TA 98; TA 98, −S9, 1 mg per plate): 20 ± 5
- ratio of number of colonies after treatment relative to untreated bacteria (S.typhimurium TA 98; TA 98, −S9): 1.05
- number of colonies growing after treatment (S.typhimurium TA 1535; TA 1535, +S9, 0.012 mg per plate): 10 ± 2
- number of colonies growing after treatment (S.typhimurium TA 1535; TA 1535, +S9, 0.037 mg per plate): 6 ± 2
- number of colonies growing after treatment (S.typhimurium TA 1535; TA 1535, +S9, 0.11 mg per plate): 7 ± 1
- number of colonies growing after treatment (S.typhimurium TA 1535; TA 1535, +S9, 0.33 mg per plate): 10 ± 5
- number of colonies growing after treatment (S.typhimurium TA 1535; TA 1535, +S9, 1 mg per plate): 7 ± 3
- ratio of number of colonies after treatment relative to untreated bacteria (S.typhimurium TA 1535; TA 1535, +S9): 0.87
- number of colonies growing after treatment (S.typhimurium TA 1535; TA 1535, −S9, 0.012 mg per plate): 6 ± 1
- number of colonies growing after treatment (S.typhimurium TA 1535; TA 1535, −S9, 0.037 mg per plate): 10 ± 5
- number of colonies growing after treatment (S.typhimurium TA 1535; TA 1535, −S9, 0.11 mg per plate): 8 ± 3
- number of colonies growing after treatment (S.typhimurium TA 1535; TA 1535, −S9, 0.33 mg per plate): 7 ± 4
- number of colonies growing after treatment (S.typhimurium TA 1535; TA 1535, −S9, 1 mg per plate): 8 ± 3
- ratio of number of colonies after treatment relative to untreated bacteria (S.typhimurium TA 1535; TA 1535, −S9): 0.72
- cell lysis [2]: no cell lysis
- average weight change of mice (Swiss Webster mice; all groups (29, 87, 145, 203 mg/kg i.p. daily for 14 days), after 28 days): ≥ 95%
- tolerance in maximum tolerated dose study (Swiss Webster mice; mice, i.p. daily for 14 days, up to 203 mg/kg): good tolerance
- mutagenic potential [3]: no mutagenic potential
- number of colonies growing after treatment (S.typhimurium TA 100; TA 100, +S9, 0.012 mg per plate): 114 ± 2
- number of colonies growing after treatment (S.typhimurium TA 100; TA 100, +S9, 0.037 mg per plate): 112 ± 8
- number of colonies growing after treatment (S.typhimurium TA 100; TA 100, +S9, 0.11 mg per plate): 91 ± 6
- number of colonies growing after treatment (S.typhimurium TA 100; TA 100, +S9, 0.33 mg per plate): 101 ± 7
- number of colonies growing after treatment (S.typhimurium TA 100; TA 100, +S9, 1 mg per plate): 97 ± 4
- ratio of number of colonies after treatment relative to untreated bacteria (S.typhimurium TA 100; TA 100, +S9): 0.88
- number of colonies growing after treatment (S.typhimurium TA 100; TA 100, −S9, 0.012 mg per plate): 92 ± 11
- number of colonies growing after treatment (S.typhimurium TA 100; TA 100, −S9, 0.037 mg per plate): 100 ± 6
- number of colonies growing after treatment (S.typhimurium TA 100; TA 100, −S9, 0.11 mg per plate): 94 ± 4
- number of colonies growing after treatment (S.typhimurium TA 100; TA 100, −S9, 0.33 mg per plate): 105 ± 9
- number of colonies growing after treatment (S.typhimurium TA 100; TA 100, −S9, 1 mg per plate): 106 ± 6
- ratio of number of colonies after treatment relative to untreated bacteria (S.typhimurium TA 100; TA 100, −S9): 1.06
- mean arterial blood pressure (MAP), % of pre-etomidate baseline (Sprague-Dawley rats [4]): 101%
- Job plot maximum (mole fraction) (Job plot [5]): 0.5
- decrease of time to recovery from LORR relative to saline (Sprague-Dawley rats [6]; etomidate-anesthetized rats): ~50%
- decrease of time to recovery from LORR relative to saline (Sprague-Dawley rats [6]; ketamine anesthetized rats): about 30%
- ED50 (median dose for accelerated recovery from LORR with 50% probability) (Sprague-Dawley rats [6]; reversal of 4 mg/kg i.v. etomidate bolus): 984 mg/kg
- ED50 (median dose for accelerated recovery from LORR with 50% probability) (Sprague-Dawley rats [6]; reversal of 30 mg/kg i.v. bolus of ketamine, 30 mg/kg): 167 mg/kg
- number of colonies growing after treatment (S.typhimurium TA 1537; TA 1537, +S9, 0.012 mg per plate): 2 ± 1
- number of colonies growing after treatment (S.typhimurium TA 1537; TA 1537, +S9, 0.037 mg per plate): 4 ± 1
- number of colonies growing after treatment (S.typhimurium TA 1537; TA 1537, +S9, 0.11 mg per plate): 6 ± 1
- number of colonies growing after treatment (S.typhimurium TA 1537; TA 1537, +S9, 0.33 mg per plate): 6 ± 1
- number of colonies growing after treatment (S.typhimurium TA 1537; TA 1537, +S9, 1 mg per plate): 5 ± 2
- ratio of number of colonies after treatment relative to untreated bacteria (S.typhimurium TA 1537; TA 1537, +S9): 0.71
- number of colonies growing after treatment (S.typhimurium TA 1537; TA 1537, −S9, 0.012 mg per plate): 7 ± 2
- number of colonies growing after treatment (S.typhimurium TA 1537; TA 1537, −S9, 0.037 mg per plate): 8 ± 2
- number of colonies growing after treatment (S.typhimurium TA 1537; TA 1537, −S9, 0.11 mg per plate): 7 ± 2
- number of colonies growing after treatment (S.typhimurium TA 1537; TA 1537, −S9, 0.33 mg per plate): 8 ± 1
- number of colonies growing after treatment (S.typhimurium TA 1537; TA 1537, −S9, 1 mg per plate): 3 ± 2
- ratio of number of colonies after treatment relative to untreated bacteria (S.typhimurium TA 1537; TA 1537, −S9): 0.3
- MAP compared to pre-ketamine baseline (Sprague-Dawley rats [7]): ~130%
- reduction of time slope of recovery of balance vs saline (rats; after 4 mg/kg etomidate i.v.): 4.9 min
- reduction of time slope of recovery of balance vs saline (rats; after 30 mg/kg ketamine i.v.): 3.9 min
- reduction of time slope of recovery of balance vs saline (rats; after 50 mg/kg ketamine i.m., calabadion 2 i.p.): 15.7 min
- cell viability (kidney cells (HEK293)): only a slight dip
- cell viability [8]: did not observe a significant reduction
- tolerability at effective doses (Sprague-Dawley rats [9]): well tolerated
- pathology finding, kidney (Sprague-Dawley rats [9]; 5 of 6 animals that received the 2 highest doses, not at 1.6 g/kg): • A mild vacuolation of the epithelium in the P1 and P2 segments of the proximal convoluted tubule.
- pathology finding, liver (Sprague-Dawley rats [9]; all animals that received 3.1–5.1 g/kg, 1 animal that received 1.6 g/kg): • Mild to moderate vacuolation that is consistent with mild fat accumulation.
- pathology finding, lung (Sprague-Dawley rats [9]; animals receiving 3.1–5.1 g/kg): Mild cellular necrosis, some apparent fluid in alveolar spaces and enlarged, foamy pulmonary alveolar macrophages; also recorded: Occasional distension of pulmonary alveolar capillaries with red blood cells and in a few animals evidence of possible pulmonary emboli; also recorded: Macrophages, especially in connective tissue or adipose tissue that were distended with a bluish, hematoxylin-positive material that appeared to be localized in the lysosomes
- pathology finding, heart (Sprague-Dawley rats [9]; i.v. up to 5.1 g/kg, all doses): • Within normal limits
- pathology finding, spleen (Sprague-Dawley rats [9]; i.v. up to 5.1 g/kg, all doses): • Within normal limits
- median lethal dose (LD50) (Sprague-Dawley rats [9]; i.v., escalating doses on consecutive days, n=10): 2700 mg/kg
- IC50 (hERG channel): > 25 µM
- cell viability (liver cells (HepG2)): did not observe a significant reduction

— article PMC4955735 (Anesthesiology, 2016)
